Results reported in BindingDB's records for doi:10.1021/jm010244+ (Axys Pharmaceuticals, 2001).

Biological target: plasmin (Homo sapiens)
Test: The compound was tested for inhibition of human plasmin

Work on `N=C(N)c1ccc2[nH]c(-c3cccc(-c4ccccc4)c3O)cc2c1Cl` [4-Chloro-2-(2-hydroxy-biphenyl-3-yl)-1H-indole-5-carboxamidine] yielded a Ki of 3000 nM.

`Cc1cc2[nH]c(-c3cccc(-c4ccccc4)c3O)cc2cc1C(=N)N` [2-(2-Hydroxy-biphenyl-3-yl)-6-methyl-1H-indole-5-carboxamidine] gave a Ki of 210 nM.
